In EP2803363A1, “The antigen CYBA-72Y/B15 and uses thereof” (Universitätsmedizin der Johannes Gutenberg-Universität Mainz, priority 2013, dated 2014):
Ends that are not written are not given here.

B1: T-cell receptor cloned from miniMLLC 2D10 (TCR)
alpha TRAV10*01 TRAJ42*01 CDR3: CVVSRIYGGSQGNLIF
beta TRBV20-1*02 TRBJ2-3*01 CDR3: CSARGFSGVTDTQYF

Experiments:
miniMLLC 2E8 [1] = assay: 20h-IFN-gamma ELISpot assay: recognition of synthetic CYBA peptides loaded on HLA-B*15:01-transfected 293T cells; format: cell-based; settings: for peptide recognition by T lymphocytes against CYBA-72Y/B15: summary statement for all T lymphocytes (miniMLLCs), assay not given; for recognition by T cells using an IFN-gamma-ELISpot assay: 293T cells transfected with HLA-B*15:01, loaded with peptide at different concentrations, 2E8 effector cells, Figure 3A
Procedure: The present invention will now be further described in the following examples with reference to the accompanying figures and sequences, nevertheless, without being limited thereto. For the purposes of the present invention, all references as cited herein are incorporated by reference in their entireties. The Figures and Sequences show: • Figure 1: HLA restriction of miniMLLC 2E8. A) MZ529-EBV-B-cells (5x10^4 cells/well) were co-incubated in the presence of HLA-specific antibodies at concentrations mediating complete blocking of control-T lymphocytes with corresponding HLA restriction, with the miniMLLC 2E8 (1x10^4 cells/TU) in duplicate reactions in a 20h-IFN-gamma ELISpot assay. B) COS-7-cells (2x10^4 cells/well) were transfected with the HLA alleles of patient MZ529-AML and Buffy Coat donor 730 and tested in duplicate reactions for recognition by 2E8 (2x10^4 cells/well) in a 20h-IFN-gamma ELISpot assay. • Figure 2: Fragment analysis of the cDNA clone #428.67.4 for the identification of the peptide-coding region. 3'-fragments with a length difference of one codon (i.e. one amino acid) were generated from the cDNA clone #428.67.4 encoding the full-length CYBA-72Y, and were tested after co-transfection with HLA-B*15:01 into 293T cells (2x10^4 cells/well) in a 20h-IFN-gamma ELISpot assay for recognition by 2E8 (1.5x10^4 cells/well). MZ529-EBV-B cells (5x10^4 cells/well) served as positive control target. • Figure 3: Peptide recognition by the miniMLLC 2E8. (A) For a 20h-IFN-gamma ELISpot assay, 293T cells (2x10^4 cells/well) were transfected with HLA-B*15:01, were loaded with the indicated synthetic CYBA peptides at different concentrations, and were tested in duplicate reactions for recognition by 2E8 (2x10^4 cells/well). (B) For a […]-^51Cr-release assay, HLA-B*15:01-expressing L721.221-cells (2x10^4 cells/well) were loaded with the indicated synthetic CYBA peptides at different concentrations, and co-incubated in duplicate experiments with 2E8 (2x10^4 cells/well). • Figure 4: Recognition of non-malignant hematopoietic cells from HLA-B*15:01-positive BC donors by the CYBA-72Y/B15-specific miniMLLC 2E8. (A) From PBMCs of HLA-B*15:01-positive BC donors, who -with the exception of BC848 - carried at least one CYBA-242T allele (coding for CYBA-72Y), monocytes were purified using plastic adherence and differentiated to mature dendritic cells (mDCs) using cytokines. In duplicates 5x10^4 (BC087, BC848, BC967) or 3x10^4 (BC241, BC048) cells per well were tested for recognition by 2E8 (1.5x10^4 cells/well) in 20h-IFN-gamma ELISpot assays. […]

miniMLLC 2E8 [2] = assay: 48h-51Cr-release assay: synthetic CYBA peptides loaded on HLA-B*15:01-expressing L721.221-cells; format: cell-based; settings: HLA-B*15:01-expressing L721.221-cells loaded with peptide at different concentrations; 2E8 effector cells; Figure 3B
Procedure: The present invention will now be further described in the following examples with reference to the accompanying figures and sequences, nevertheless, without being limited thereto. For the purposes of the present invention, all references as cited herein are incorporated by reference in their entireties. The Figures and Sequences show: • Figure 1: HLA restriction of miniMLLC 2E8. A) MZ529-EBV-B-cells (5x10^4 cells/well) were co-incubated in the presence of HLA-specific antibodies at concentrations mediating complete blocking of control-T lymphocytes with corresponding HLA restriction, with the miniMLLC 2E8 (1x10^4 cells/TU) in duplicate reactions in a 20h-IFN-gamma ELISpot assay. B) COS-7-cells (2x10^4 cells/well) were transfected with the HLA alleles of patient MZ529-AML and Buffy Coat donor 730 and tested in duplicate reactions for recognition by 2E8 (2x10^4 cells/well) in a 20h-IFN-gamma ELISpot assay. • Figure 2: Fragment analysis of the cDNA clone #428.67.4 for the identification of the peptide-coding region. 3'-fragments with a length difference of one codon (i.e. one amino acid) were generated from the cDNA clone #428.67.4 encoding the full-length CYBA-72Y, and were tested after co-transfection with HLA-B*15:01 into 293T cells (2x10^4 cells/well) in a 20h-IFN-gamma ELISpot assay for recognition by 2E8 (1.5x10^4 cells/well). […]

[3] = target: T1, CYBA-72Y (cytochrome b-245 alpha-polypeptide, p22phox; SNP rs4673, tyrosine at position 72) peptide on … (human); assay: cytokine release
T1 peptide: GQKYMTAVV

[4] = target: T2, CYBA-72Y peptide on HLA-B*15:01 (human); assay: cytokine release
T2 peptide: WGQKYMTAVV

Molecule | peptide recognition by T lymphocytes against CYBA-72Y/B15 (miniMLLC 2E8 [1]) | recognition by T cells using an IFN-gamma-ELISpot assay (miniMLLC 2E8 [1]) | recognition by T cells by means of a 51Cr-(chromium) release test (miniMLLC 2E8 [2]) | binding result [3] | binding result [4]
GQKHMTAVV [homologous peptide from CYBA-72H, reference compound] | did not lead to any reactivity | – | – | – | –
GQKYMTAVV [GQKYMTAVV] | recognized by all T lymphocytes at the lowest concentration | recognized at lower concentrations | recognized at lower concentrations | – | –
WGQKYMTAVV [WGQKYMTAVV] | – | recognized | recognized | – | –
B1 | – | – | – | recognises | recognises
